From PubChem BioAssay (NCI)
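Values below derive from 48-hour exposures of cells grown in 96-well plates, with endpoints linearly interpolated between the two concentrations bracketing the appropriate inhibition level. Definition used: TGI = concentration required for complete inhibition of growth.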

Columns and labels:
Assay in all cases: DTP human tumour cell line panel, 48 h
MALME-3M melanoma = test system: MALME-3M melanoma
NCI-H460 lung = test system: NCI-H460 lung
SF-268 CNS = test system: SF-268 CNS
A549 NSCLC = test system: A549 NSCLC
UO-31 renal = test system: UO-31 renal
KM12 colon = test system: KM12 colon
SN12C renal = test system: SN12C renal
HCT-15 colon = test system: HCT-15 colon
HT29 colon = test system: HT29 colon
HOP-18 NSCLC = test system: HOP-18 NSCLC
SF-539 CNS = test system: SF-539 CNS
RPMI-8226 leukemia = test system: RPMI-8226 leukemia
786-0 renal = test system: 786-0 renal
CAKI-1 renal = test system: CAKI-1 renal
UACC-257 melanoma = test system: UACC-257 melanoma
TK-10 renal = test system: TK-10 renal
MOLT-4 leukemia = test system: MOLT-4 leukemia
DMS 273 small cell lung = test system: DMS 273 small cell lung
M19-MEL melanoma = test system: M19-MEL melanoma
SW-620 colon = test system: SW-620 colon
LOX IMVI melanoma = test system: LOX IMVI melanoma
M14 melanoma = test system: M14 melanoma
SNB-78 CNS = test system: SNB-78 CNS
OVCAR-8 ovarian = test system: OVCAR-8 ovarian
KM20L2 colon = test system: KM20L2 colon
DMS 114 small cell lung = test system: DMS 114 small cell lung
OVCAR-5 ovarian = test system: OVCAR-5 ovarian
OVCAR-3 ovarian = test system: OVCAR-3 ovarian
CCRF-CEM leukemia = test system: CCRF-CEM leukemia
ACHN renal = test system: ACHN renal
HCT-116 colon = test system: HCT-116 colon
NCI-H522 lung = test system: NCI-H522 lung
OVCAR-4 ovarian = test system: OVCAR-4 ovarian
SK-MEL-28 melanoma = test system: SK-MEL-28 melanoma
HL-60(TB) leukemia = test system: HL-60(TB) leukemia
K-562 leukemia = test system: K-562 leukemia
SK-OV-3 ovarian = test system: SK-OV-3 ovarian
LXFL 529 NSCLC = test system: LXFL 529 NSCLC
A498 renal = test system: A498 renal
COLO 205 colon = test system: COLO 205 colon
NCI-H226 lung = test system: NCI-H226 lung
UACC-62 melanoma = test system: UACC-62 melanoma
HOP-92 NSCLC = test system: HOP-92 NSCLC
SNB-19 CNS = test system: SNB-19 CNS
SK-MEL-5 melanoma = test system: SK-MEL-5 melanoma
HCC-2998 colon = test system: HCC-2998 colon
SF-295 CNS = test system: SF-295 CNS
IGROV1 ovarian = test system: IGROV1 ovarian
HOP-62 NSCLC = test system: HOP-62 NSCLC
EKVX NSCLC = test system: EKVX NSCLC
SNB-75 CNS = test system: SNB-75 CNS
DLD-1 colon = test system: DLD-1 colon
SK-MEL-2 melanoma = test system: SK-MEL-2 melanoma
SR leukemia = test system: SR leukemia
NCI-H23 lung = test system: NCI-H23 lung
U251 CNS = test system: U251 CNS
RXF 393 renal = test system: RXF 393 renal

Question: Which results are given for `O=C1NC(=O)C2C1C1C=C3c4ccccc4N(c4ccccc4)C32[C@H]2C(=O)NC(=O)[C@@H]12` (stereo not given in full)?
Answer: TGI (MALME-3M melanoma): > 100 µM; TGI (NCI-H460 lung): > 100 µM; TGI (SF-268 CNS): > 100 µM; TGI (A549 NSCLC): > 100 µM; TGI (UO-31 renal): > 100 µM; TGI (KM12 colon): > 100 µM; TGI (SN12C renal): > 100 µM; TGI (HCT-15 colon): > 100 µM; TGI (HT29 colon): > 100 µM; TGI (HOP-18 NSCLC): > 100 µM; TGI (SF-539 CNS): > 100 µM; TGI (RPMI-8226 leukemia): > 100 µM; TGI (786-0 renal): > 100 µM; TGI (CAKI-1 renal): > 100 µM; TGI (UACC-257 melanoma): > 100 µM; TGI (TK-10 renal): > 100 µM; TGI (MOLT-4 leukemia): > 100 µM; TGI (DMS 273 small cell lung): > 100 µM; TGI (M19-MEL melanoma): > 100 µM; TGI (SW-620 colon): > 100 µM; TGI (LOX IMVI melanoma): > 100 µM; TGI (M14 melanoma): > 100 µM; TGI (SNB-78 CNS): > 100 µM; TGI (OVCAR-8 ovarian): > 100 µM; TGI (KM20L2 colon): > 100 µM; TGI (DMS 114 small cell lung): > 100 µM; TGI (OVCAR-5 ovarian): > 100 µM; TGI (OVCAR-3 ovarian): > 100 µM; TGI (CCRF-CEM leukemia): > 100 µM; TGI (ACHN renal): > 100 µM; TGI (HCT-116 colon): > 100 µM; TGI (NCI-H522 lung): > 100 µM; TGI (OVCAR-4 ovarian): > 100 µM; TGI (SK-MEL-28 melanoma): > 100 µM; TGI (HL-60(TB) leukemia): > 100 µM; TGI (K-562 leukemia): > 100 µM; TGI (SK-OV-3 ovarian): > 100 µM; TGI (LXFL 529 NSCLC): > 100 µM; TGI (A498 renal): > 100 µM; TGI (COLO 205 colon): > 100 µM; TGI (NCI-H226 lung): > 100 µM; TGI (UACC-62 melanoma): > 100 µM; TGI (HOP-92 NSCLC): > 100 µM; TGI (SNB-19 CNS): > 100 µM; TGI (SK-MEL-5 melanoma): > 100 µM; TGI (HCC-2998 colon): > 100 µM; TGI (SF-295 CNS): > 100 µM; TGI (IGROV1 ovarian): > 100 µM; TGI (HOP-62 NSCLC): > 100 µM; TGI (EKVX NSCLC): > 100 µM; TGI (SNB-75 CNS): > 100 µM; TGI (DLD-1 colon): > 100 µM; TGI (SK-MEL-2 melanoma): > 100 µM

Question: What does the source list for `COc1ccc2[nH]c3c4c(cc(-c5ccccc5)c3c2c1)C(=O)N(c1ccccc1)C4=O`?
Answer: TGI (MALME-3M melanoma): 65 µM; TGI (NCI-H460 lung): > 100 µM; TGI (SF-268 CNS): 97.1 µM; TGI (A549 NSCLC): > 100 µM; TGI (UO-31 renal): > 72 µM; TGI (KM12 colon): > 100 µM; TGI (SN12C renal): > 100 µM; TGI (HCT-15 colon): > 100 µM; TGI (HT29 colon): > 100 µM; TGI (HOP-18 NSCLC): > 100 µM; TGI (SF-539 CNS): 16.5 µM; TGI (RPMI-8226 leukemia): > 100 µM; TGI (786-0 renal): 29.5 µM; TGI (CAKI-1 renal): > 77.7 µM; TGI (UACC-257 melanoma): > 100 µM; TGI (TK-10 renal): > 100 µM; TGI (MOLT-4 leukemia): > 100 µM; TGI (DMS 273 small cell lung): 36.8 µM; TGI (M19-MEL melanoma): > 100 µM; TGI (SW-620 colon): > 100 µM; TGI (LOX IMVI melanoma): > 92 µM; TGI (M14 melanoma): > 95.4 µM; TGI (SNB-78 CNS): > 88.3 µM; TGI (OVCAR-8 ovarian): 39.6 µM; TGI (KM20L2 colon): > 100 µM; TGI (DMS 114 small cell lung): > 100 µM; TGI (OVCAR-5 ovarian): > 100 µM; TGI (SR leukemia): 19.9 µM; TGI (OVCAR-3 ovarian): 55.2 µM; TGI (CCRF-CEM leukemia): 15.1 µM; TGI (ACHN renal): > 100 µM; TGI (HCT-116 colon): > 100 µM; TGI (NCI-H522 lung): 61 µM; TGI (OVCAR-4 ovarian): 3.56 µM; TGI (SK-MEL-28 melanoma): > 100 µM; TGI (HL-60(TB) leukemia): > 100 µM; TGI (K-562 leukemia): > 100 µM; TGI (SK-OV-3 ovarian): > 93.1 µM; TGI (LXFL 529 NSCLC): 64.3 µM; TGI (A498 renal): > 73.8 µM; TGI (COLO 205 colon): > 100 µM; TGI (NCI-H23 lung): 98.6 µM; TGI (NCI-H226 lung): > 100 µM; TGI (U251 CNS): 36.7 µM; TGI (UACC-62 melanoma): > 90.6 µM; TGI (HOP-92 NSCLC): 74 µM; TGI (SNB-19 CNS): > 81.8 µM; TGI (SK-MEL-5 melanoma): > 100 µM; TGI (HCC-2998 colon): > 100 µM; TGI (SF-295 CNS): 33.7 µM; TGI (RXF 393 renal): 69.7 µM; TGI (IGROV1 ovarian): > 100 µM; TGI (HOP-62 NSCLC): > 71.3 µM; TGI (EKVX NSCLC): > 100 µM; TGI (SNB-75 CNS): 37.2 µM; TGI (DLD-1 colon): > 100 µM; TGI (SK-MEL-2 melanoma): > 100 µM
